Experimental data taken from patent US11629359B2, “Plasma membrane intrinsic aquaporin for absorbing and transporting neonicotinoid insecticides, and coding gene and use therefor” (JIANGSU ACADEMY OF ARGRICULTURAL SCIENCES, priority 2020, dated 2023).

Legend:
Chinese cabbage plants = conditions: 2 mg/L in Hoagland nutrient solution, mercuric chloride and glycerol of different concentrations, 48 h
BraPIP2;1 = experiment: Response of BraPIP2;1 gene expression to thiamethoxam (quantitative RT-PCR); assay type: in vivo, Chinese cabbage; conditions: 10 mg/L thiamethoxam, 6 hours and 24 hours, p<0.001
Description: Seedlings of Chinese cabbage with the same growth condition were put in a Hoagland's nutrient solution containing 10 mg/L thiamethoxam (the Hoagland's nutrient solution was purchased from Beijing Coolaber Technology Co., Ltd.), and treated in the Hoagland's nutrient solution for 6 and 24 hours (treatment group).
At the same time, a Hoagland's nutrient solution without thiamethoxam was used as the control group.
Treated root and aboveground tissue RNA of two groups was extracted respectively, the 1st strand cDNA was obtained by reverse transcription as a template, specific expression primers were designed based on the cDNA sequence of BraPIP2;1, the Chinese cabbage Tublin was used as an internal reference, and the expression of the gene transcription level was detected by quantitative RT-PCR.
The quantification instrument is 7500 Real Time PCR System (Applied Biosystem), and a qPCRT system was configured according to the instructions of a kit 2×TSINGKE Master qPCR Mix (Tsingke Biotechnology Co., Ltd.). The PCR program is: pre-denaturation at 95° C. for 10 min, at 95° C. for 15s, and at 60° C. for 20 s, for 40 cycles.

[1] = system: Saccharomyces cerevisiae INVSc1 (pYES2-BraPIP2;1); experiment: Growth of recombinant yeast strains under thiamethoxam stress; assay type: cell-based; conditions: thiamethoxam 10-1600 mg/L, stress at 30° C. for 72 h
Description: (§1) The BraPIP2;1 gene cloned in Example 1 was constructed into the Saccharomyces cerevisiae overexpression vector pYES2 (purchased from Clotech) referring to (He Lin, Jiang Lili, Wang Yucheng, Analysis of the stress tolerance of Tamarix thioredoxin peroxidase (ThPrx1) gene transformed into yeast, Journal of Northeast Forestry University, 2011, Vol. 39. No. 4, 101-104), and the constructed recombinant plasmid was named pYES2-BraPIP2;1. The pYES2-BraPIP2;1 and an empty vector pYES2 were transformed into Saccharomyces cerevisiae INVSc1 by lithium acetate precipitation. The recombinant yeasts were named INVSc1 (pYES2-BraPIP2;1) and INVSc1 (pYES2), respectively.
(§2) Induction of recombinant strains: Single colonies of the control yeast INvsc1 (pYES2) and the recombinant yeast INvsc1 (pYES2-BraPIP2;1) were picked, inoculated in an SC-U liquid medium (with glucose of a final concentration of 2%) respectively, and incubated at 30° C. for 24 h on a shaker. The OD600 value is measured, and the amount of bacterial solution required is calculated such that the OD600 of bacteria in 10 ml of induction medium (SC-U+2% galactose) is 0.4. Induce expression was carried out at 30° C. for 24 h. The OD600 value was measured again, and the amount of bacterial solution required was calculated. […]

[2] = system: Saccharomyces cerevisiae INVSc1 (pYES2-BraPIP2;1); experiment: Thiamethoxam content of recombinant yeast strain; assay type: cell-based; conditions: 30° C., 6 h
Description: as §1, §2

[3] = system: Saccharomyces cerevisiae INVSc1 (pYES2); experiment: Thiamethoxam content of control yeast strain; assay type: cell-based; conditions: 30° C., 6 h
Description: as §1, §2

[4] = system: BraPIP2;1 overexpression Arabidopsis thaliana; experiment: Main root length of BraPIP2;1 transgenic Arabidopsis thaliana under thiamethoxam; assay type: in vivo; conditions: 1/2MS media with 10 and 50 mg/L thiamethoxam, 20 days
Description: (§3) The BraPIP2;1 gene cloned in Example 1 was constructed into the plant binary overexpression vector pCAMBIA2301 (purchased from Clotech). By the Agrobacterium tumefaciens-mediated method (Valvekens, D., van Montagu, M., and Lijsebettens, M. V. (1988). Agrobacterium tumefaciens-mediated transformation of Arabidopsis thaliana root explants by using kanamycin selection. Proc. Natl. Acad. Sci. USA 85, 5536-5540.), the inflorescence of wild-type Arabidopsis thaliana Col-0 (purchased from ATCC, USA) was infected with the constructed overexpression vector. Through screening (resistance pure line seedlings were screened on a 1/2MS plate containing 50 μg/mL kanamycin), BraPIP2;1 overexpression Arabidopsis thaliana pure line materials BraPIP2;1#3 and BraPIP2;1#5 were identified and obtained.
The pure line seeds of the BraPIP2;1#3 and BraPIP2;1#5 obtained in the previous transgenic experiment and a wild-type Col-0 material (WT) were germinated on a 1/2MS medium respectively, and then transferred to 1/2MS media (Qingdao Hopebio Co., Ltd., Item No. HB8469-12, PH=5.6) containing 10 and 50 mg/L thiamethoxam respectively. After 20 days, the growth of the seedlings was observed and the main root length was measured.

[5] = system: BraPIP2;1 overexpression Arabidopsis thaliana; experiment: Thiamethoxam content of BraPIP2;1 transgenic Arabidopsis thaliana plants; assay type: in vivo; conditions: soil containing 10 mg/L thiamethoxam, 20 days
Description: as §3
In addition, germinated seedlings of the same size were transplanted into soil containing 10 mg/L thiamethoxam, and after 20 days of culture, the root and aboveground samples of the transgenic Arabidopsis thaliana and the control were harvested respectively, washed with deionized water, and weighed.

SMILES	content of the compound in the plants after water channel inhibitors were added (Chinese cabbage plants)	expression abundance of BraPIP2;1 in the roots and aboveground parts compared with the control (BraPIP2;1)	growth of transgenic strain (pYES2-BraPIP2;1) versus wild strain (pYES2) with thiamethoxam [1]	thiamethoxam content of the recombinant strain ([2]; 10 mg/L thiamethoxam) [ng/OD]	thiamethoxam content of the recombinant strain ([2]; 100 mg/L thiamethoxam) [ng/OD]	thiamethoxam content of the control strain ([3]; 10 mg/L thiamethoxam) [ng/OD]	thiamethoxam content of the control strain ([3]; 100 mg/L thiamethoxam) [ng/OD]	main root length of the transgenic strain versus wild type [4]	thiamethoxam content of the roots and aboveground parts of the transgenic plant versus wild plant [5]
CN1CCCC1c1cccnc1 (stereo not drawn) [nicotine]	did not change significantly								
CN1COCN(Cc2cnc(Cl)s2)/C1=N\[N+](=O)[O-] [thiamethoxam]		significantly increased	grows significantly weaker than the wild strain	0.0071	0.028	0.0038	0.011	shorter than that of the wild type	higher than that of the wild plant
